From ChEMBL document CHEMBL1128132, “Ace inhibitors as a template for the design of bradykinin B2 receptor antagonists” (Bioorg Med Chem Lett, 1995)

target: T1, B2 bradykinin receptor (Homo sapiens) (UniProt P30411); test: Tested for percent inhibition of binding affinity against Bradykinin receptor B2 at 10 uM concentration
T1 sequence (whole entry): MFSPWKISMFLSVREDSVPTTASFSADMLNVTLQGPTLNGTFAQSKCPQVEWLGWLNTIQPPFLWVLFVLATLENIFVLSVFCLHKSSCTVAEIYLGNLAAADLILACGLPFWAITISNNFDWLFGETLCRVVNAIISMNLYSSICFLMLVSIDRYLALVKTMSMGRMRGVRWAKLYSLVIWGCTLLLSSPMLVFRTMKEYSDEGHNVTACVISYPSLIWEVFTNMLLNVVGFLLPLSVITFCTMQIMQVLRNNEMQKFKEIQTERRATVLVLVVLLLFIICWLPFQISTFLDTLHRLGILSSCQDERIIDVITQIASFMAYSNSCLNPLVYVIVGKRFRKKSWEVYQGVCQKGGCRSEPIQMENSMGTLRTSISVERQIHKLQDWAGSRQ

Row | Compound | inhibition [%]
1 | CCCC[P+](CCCC)(CCCC)Cc1ccc(NC(=O)C2Cc3ccccc3CN2C(=O)C(CCc2ccccc2)NC(=O)OC(C)(C)C)cc1 (stereo not drawn) | > 50
2 | CCCC[PH](CCCC)(CCCC)Cc1ccc(NC(=O)C2Cc3ccccc3CN2C(=O)CN/C(=N/C2CCCCC2)NC2CCCCC2)cc1 (stereo not drawn) | 33
3 | CCCC[PH](CCCC)(CCCC)Cc1ccc(NC(=O)C2Cc3ccccc3CN2C(=O)[C@@H](N)CCc2ccccc2)cc1 (single isomer, unassigned; diastereomer 1) | 26
4 | CCCC[P+](CCCC)(CCCC)Cc1ccc(NC(=O)C2Cc3ccccc3CN2C(=O)CCCc2ccccc2)cc1 (stereo not drawn) | > 50
5 | CCCC[P+](CCCC)(CCCC)Cc1ccc(NC(=O)C2Cc3ccccc3CN2C(=O)CNC(=O)OC(C)(C)C)cc1 (stereo not drawn) | 18

The next lines start with the values.

Row | inhibition [%] | Compound
6 | 12 | O=C(Nc1ccc(CN/C(=N/C2CCCCC2)NC2CCCCC2)cc1)C1Cc2ccccc2CN1C(=O)CN/C(=N/C1CCCCC1)NC1CCCCC1 (stereo not drawn)
7 | > 50 | CCCC[PH](CCCC)(CCCC)Cc1ccc(NC(=O)C2Cc3ccccc3CN2C(=O)[C@H](CCc2ccccc2)N/C(=N/C2CCCCC2)NC2CCCCC2)cc1 (single isomer, unassigned; diastereomer 1)
8 | > 50 | CCCC[PH](CCCC)(CCCC)Cc1ccc(NC(=O)C2Cc3ccccc3CN2C(=O)[C@H](CCc2ccccc2)N/C(=N/C2CCCCC2)NC2CCCCC2)cc1 (single isomer, unassigned; diastereomer 2)
9 | 26 | CCCC[PH](CCCC)(CCCC)Cc1ccc(NC(=O)C2Cc3ccccc3CN2C(=O)[C@@H](N)CCc2ccccc2)cc1 (single isomer, unassigned; diastereomer 2)
10 | 34 | CCCC[PH](CCCC)(CCCC)Cc1ccc(NC(=O)C2Cc3ccccc3CN2/C(=N/C2CCCCC2)NC2CCCCC2)cc1 (stereo not drawn)
11 | 36 | CCCC[PH](CCCC)(CCCC)Cc1ccc(NC(=O)C2Cc3ccccc3CN2C(=O)CN)cc1 (stereo not drawn)

target: T2, B2 bradykinin receptor (Homo sapiens, UniProt P30411); test: Tested for binding affinity against human IMR-90 Bradykinin receptor B2
T2 sequence (P30411 whole entry): T1 sequence (whole entry)

Row | Ki [µM] | Compound
12 | 8 | CCCC[P+](CCCC)(CCCC)Cc1ccc(NC(=O)C2Cc3ccccc3CN2C(=O)C(CCc2ccccc2)NC(=O)OC(C)(C)C)cc1 (stereo not drawn)
13 | 10 | CCCC[P+](CCCC)(CCCC)Cc1ccc(NC(=O)C2Cc3ccccc3CN2C(=O)CCCc2ccccc2)cc1 (stereo not drawn)
